One series deals with T1, CRTH2 (Homo sapiens, UniProt Q9Y5Y4).
T1 construct: expressed in transfected cells; host or cells: K562 cells (membrane fraction)
T1 sequence (Q9Y5Y4 1-395): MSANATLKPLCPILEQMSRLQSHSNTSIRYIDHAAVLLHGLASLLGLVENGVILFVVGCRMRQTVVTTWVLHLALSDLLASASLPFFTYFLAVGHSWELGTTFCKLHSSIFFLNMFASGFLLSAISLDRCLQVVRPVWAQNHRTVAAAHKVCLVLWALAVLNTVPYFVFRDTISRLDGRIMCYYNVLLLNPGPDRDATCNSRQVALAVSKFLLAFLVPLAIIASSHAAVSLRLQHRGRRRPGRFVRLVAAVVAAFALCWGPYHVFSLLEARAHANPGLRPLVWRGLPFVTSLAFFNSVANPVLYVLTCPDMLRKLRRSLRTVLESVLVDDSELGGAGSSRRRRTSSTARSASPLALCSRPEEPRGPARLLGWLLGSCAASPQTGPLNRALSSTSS
As to the kind of experiment: Binding activity to CRTH2 ([3H]PGD2 binding assay). The settings on record: membrane fraction of CRTH2-transfected K562 cells, read-out: CRTH2 inhibitory activity IC50. As to the method:
Experiment 1 Binding Activity to CRTH2
The membrane fraction prepared with CRTH2-transfected K562 cells was used for a binding assay. To a binding-reaction solution (50 mM Tris/HCl, pH 7.4, 10 mM MgCl2) the membrane fraction (0.06 mg) and 3 nM [^3H]PGD2 (172 Ci/mmol) were added, and the mixture was reacted at room temperature for 60 min. After the reaction, the mixture was filtered through a glass fiber filter paper and washed several times with cooled physiological saline, then the radioactivity retained on the filter paper was measured. The specific-binding ratio was calculated by subtracting the non-specific binding ratio which is the radioactivity similarly measured in the presence of 10 μM PGD2 from the total binding.

The target in series [1] is T2, human CRTH2-transfected K562 cells (Homo sapiens, UniProt Q9Y5Y4).
T2 construct: expressed in transfected cells; host or cells: K562 cells
T2 sequence (Q9Y5Y4 1-395): T1 sequence (Q9Y5Y4 1-395)
The series can be described thus: Antagonistic activity to CRTH2: calcium mobilization assay induced by PGD2. The format is cell-based. The settings on record: compound at 1 μM, percent inhibition of PGD2-induced calcium mobilization. Here is the method:
Experiment 2 Evaluation of Antagonistic Activity to CRTH2
To evaluate the antagonistic activity of compounds against CRTH2, calcium mobilization assay induced by PGD2 was performed using CRTH2 transfectants.
The human CRTH2-transfected K562 cells were suspended at 2×10^6 cells/ml in assay buffer (10 mM HEPES buffer, pH 7.4, 0.1% Bovine serum albumin), and were incubated with Fura-2 AM (2 μM) for 60 min at room temperature. After washing cells were resuspended again with assay buffer, incubated at 37° C., and then treated with various concentrations of compounds for 2 min. The emitted fluorescence was measured on a calcium analyzer (CAF-110) after addition of PGD2.
On the technique in general: Calcium flux is commonly read through the fluorescence of an indicator in the cells.

Structures are written as SMILES.

As usually defined, the IC50 is the concentration that inhibits the measured activity by half. For the compound `O=C(O)Cn1cc(CCNS(=O)(=O)c2ccc(F)cc2)c2cc(F)ccc21` [Ia-36], the IC50 on CRTH2 amounted to 15 nM. Besides, the “antagonistic activity to CRTH2 (% INH)” value in series [1] is 89 % INH.
As a reminder, the melting point is the temperature, or range, at which the solid turns liquid. On to `O=C(O)Cn1cc(C(CNS(=O)(=O)c2ccc(F)cc2)c2ccccc2)c2ccccc21` (centres unmarked) [If-9], for which the melting point lay in the range of 117 to 120 °C. The IC50 at CRTH2 stood at 12 nM.
On the same counts, the results for `CN(c1ccc2c(c1)c1ccccc1n2CC(=O)O)S(=O)(=O)c1ccc(F)cc1` [Ie-5] are 188 to 191 °C and 18 nM.
In the same order, the values of `O=C(O)Cn1c2c(c3cc(NS(=O)(=O)c4ccc(F)cc4)ccc31)CCCCCC2` [Ig-18] are 193 to 197 °C and 19 nM.
For the compound `CN(c1ccc2c(c1)c1c(n2CC(=O)O)CCCC1)S(=O)(=O)c1ccc(F)cc1` [Ih-2], the “antagonistic activity to CRTH2 (% INH)” value in series [1] is on record as 91 % INH.
`O=C(O)Cn1cc(C2CCN(S(=O)(=O)c3ccc(F)cc3)C2)c2ccccc21` (centres unmarked) [Ic-14] had a melting point of 155 to 156 °C. Moreover, the IC50 on CRTH2 turned out to be 5.5 nM.
`O=C(O)Cn1cc(CCN(Cc2ccccc2)S(=O)(=O)c2ccc(F)cc2)c2ccccc21` [Ia-51]: on CRTH2, the IC50 was found to be 20 nM. The “antagonistic activity to CRTH2 (% INH)” value in series [1] was found to be 91 % INH.
In the case of `O=C(O)Cn1cc(C2CCCN(S(=O)(=O)c3ccc(F)cc3)C2)c2ccccc21` (centres unmarked) [Ic-6], the melting point was 189 to 194 °C (dec.). For the same compound, the half-maximal inhibitory concentration (IC50) at CRTH2 stood at 4.5 nM. In series [1], the “antagonistic activity to CRTH2 (% INH)” value amounted to 100 % INH.
`O=C(O)Cn1c2ccccc2c2cc(NS(=O)(=O)c3ccc(F)cc3)ccc21` [Ie-2] returned a melting point of 139 to 141 °C. Further, the IC50 at CRTH2 was 39 nM.
`O=C(O)Cn1c2ccccc2c2cc(N(Cc3ccccc3)S(=O)(=O)c3ccc(F)cc3)ccc21` [Ie-8] yielded a melting point of 212 to 213 °C. Also, the IC50 on CRTH2 came out at 26 nM.
`CN(C1CCc2c(c3ccccc3n2CC(=O)O)C1)S(=O)(=O)c1ccc(Cc2ccccc2)s1` (centres unmarked) [Ib-31] displayed a melting point of 138 to 140 °C. The IC50 on CRTH2 was found to be 59 nM. For the same compound, the “antagonistic activity to CRTH2 (% INH)” value in series [1] is reported as 96 % INH.

These data come from US7534897B2 (Shionogi & Co., Ltd., priority 2002, dated 2009).
